Records with an inconclusive call do not appear.
Molecular target: Virion infectivity factor (Human immunodeficiency virus type 1 group M subtype B (isolate BH10)) + Virion infectivity factor (Human immunodeficiency virus type 1 group M subtype B (isolate BRU/LAI)) + Virion infectivity factor (Human immunodeficiency virus type 1 group M subtype B (isolate PCV12)) + Virion infectivity factor (Human immunodeficiency virus type 1 group M subtype B (isolate HXB2)) + DNA dC->dU-editing enzyme APOBEC-3G (Homo sapiens) (UniProt P69720+P69721+P69722+P69723+Q9HC16)
Experiment: HIV-1 Vif–A3G interaction blockers – biochemical, TR-FRET, GST-Vif 1-94, biotin-A3G peptide, dose response retest, primary screen (AID 1117319);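 also: Vif residues 1-94 fused to GST binding biotinylated APOBEC3G peptide 110-148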
Settings: TR-FRET GST-Vif / biotin-A3G peptide binding

For `COc1cc(NC(=O)CS(=O)(=O)c2ccc(C)cc2)cc(OC)c1OC`, the IC50 was 23.3 µM.
In the case of `Cc1cc(-c2nc3c4c5c(sc4[nH]c(=O)n3n2)CCC5)c(C)o1`, the IC50 is reported as 0.69 µM.
In the case of `CCn1c(SCC(=O)Nc2cc(C)on2)nnc1-c1cccnc1`, the IC50 is reported as 9.51 µM.
`CN1CCc2cccc3c2[C@@H]1Cc1ccc(O)c(O)c1-3` gave an IC50 of 1.66 µM.
For `Cn1nnnc1SCC(=O)NCc1ccco1`, the IC50 was 42.8 µM.
`O=[N+]([O-])c1cc(Br)c(O)c(C=Nc2ccc(N3CCOCC3)cc2)c1` showed an IC50 of 7.19 µM.
For `Cc1ccc(/C=C/C(=O)Nc2ncc(C)s2)o1`, the IC50 was 7.07 µM.
For `Cc1cccc(NC(=S)NC(=O)/C=C/c2ccco2)c1`, the IC50 was 17.5 µM.
With `Cc1cc(C)n(CC(=O)NNC(=O)c2ccc(NC(=O)CC#N)cc2)n1` the IC50 was 91.3 µM.
For `CC[n+]1ccc(C)c2cc(S(=O)C(F)(F)F)ccc21` (stereo unspecified), the IC50 was 8.8 µM.
Molecule `CC1C=CC=CC=CC=CC=CC=CC=CC(OC2OC(C)C(O)C(N)C2O)CC2OC(O)(CC(O)CC(O)C(O)CCC(O)CC(O)CC(=O)OC(C)C(C)C1O)CC(O)C2C(=O)O` (stereo unspecified) has an IC50 of 0.87 µM.
`CN1CCN(S(=O)(=O)c2ccc(NC(=S)NC(=O)c3ccc(Cl)cc3)cc2)CC1` gave an IC50 of 80.7 µM.
For `[O-][n+]1onc2c1CCc1c-2nc(-c2ccccc2)n1OCc1ccccc1`, the IC50 was 76.9 µM.
With `Cc1cc(-c2ccco2)n(-c2ccccc2)n1` the IC50 was 50.4 µM.
`O=c1[nH][nH]c2c(N=Cc3ccccc3O)ccc(F)c12` showed an IC50 of 0.87 µM.
For `Cc1cccc(-n2nc3c(c2NC(=O)c2ccc(Br)o2)CSC3)c1`, the IC50 was 63.6 µM.
In the case of `CC1=Nc2nc(N3CCCCC3)c(C#N)c3c4c(nc(c23)N1)N(c1ccc(C(C)C)cc1)C(=O)C4`, the IC50 is reported as 5.27 µM.
Molecule `Cc1ccc(C(=O)Nc2ccc(O)c(C(=O)O)c2)o1` has an IC50 of 3.87 µM.
Molecule `CCOc1ccc(-n2c(=O)c3c(C)c(C)sc3n(CC(=O)NCc3ccco3)c2=O)cc1` has an IC50 of 74.9 µM.
For `O=C(O)c1cccc(-n2cccc2/C=C/[N+](=O)[O-])c1`, the IC50 was 5.49 µM.
`COc1ccccc1C1CC(=O)Nc2c1c(=O)n(C)c(=O)n2C` (stereo unspecified) gave an IC50 of 70.4 µM.
`Cn1cccc1C(=O)NC(=O)COC(=O)CC12CC3CC(CC(Br)(C3)C1)C2` showed an IC50 of 58.5 µM.
For `O=[N+]([O-])c1c(NCCCO)cc(SCc2ccco2)c2nonc12`, the IC50 was 4.65 µM.
Molecule `O=C1/C(=C\c2ccco2)CCC/C1=C\c1ccco1` has an IC50 of 3.05 µM.
`O=C1NC(=O)N(Cc2ccccc2)C(=O)/C1=C\C=C\c1ccco1` was tested, and the IC50 was 4 µM.
For `Nc1ccc(Oc2ncccn2)cc1`, the IC50 was 24.4 µM.
In the case of `CCn1cc(CNC(=O)c2ccc(Cl)c([N+](=O)[O-])c2)c(C)n1`, the IC50 is reported as 15.7 µM.
`C=CCN1CCc2cccc3c2[C@H]1Cc1ccc(O)c(O)c1-3` gave an IC50 of 14.8 µM.
For `O=C1CC(c2ccco2)CC(O)=C1C=Nc1cc(Cl)cc(Cl)c1` (stereo unspecified), the IC50 was 4.12 µM.
`O=C1NN(c2ccc(Cl)cc2)C(=O)/C1=C\c1ccc(-c2cccc(C(=O)O)c2)o1` was tested, and the IC50 was 5.76 µM.
Molecule `O=C(CCS(=O)(=O)c1ccc(Br)cc1)NC1CCCC1` has an IC50 of 20.5 µM.
Molecule `O=C(Nc1ccccc1-c1nnn(CC(=O)N2CCc3ccccc3C2)n1)C1CCC1` has an IC50 of 91 µM.
For `COc1ccc2ccccc2c1C1CC(=O)N2CN(Cc3ccco3)CSC2=C1C#N` (stereo unspecified), the IC50 was 53.6 µM.
Work on `O=C(Nc1ccc(Br)cn1)c1coc(=O)c(Br)c1` yielded an IC50 of 13 µM.
In the case of `Cc1cc(C(C)c2ccccc2)c(O)c(CN2CCOCC2)c1C` (stereo unspecified), the IC50 is reported as 28.8 µM.
`CC(=O)c1ccc2c(c1)C1C=CCC1C(C(=O)O)N2` (stereo unspecified) showed an IC50 of 0.6 µM.
Work on `Oc1ccc(/C=C/c2cc(O)cc(O)c2)cc1` yielded an IC50 of 25.3 µM.
`Oc1ccc(NCc2cccc(OCc3ccc(F)cc3)c2)cc1` showed an IC50 of 2.37 µM.
`COCCNC(=O)c1ccc(CS(=O)(=O)c2c(Cl)cccc2Cl)o1` showed an IC50 of 39.9 µM.
With `COc1cccc(C=Nc2cc(C(C)C)c(O)cc2C)c1O` the IC50 was 34.2 µM.
`CNC[C@H](O)c1ccc(O)c(O)c1` was tested, and the IC50 was 1.16 µM.
`CN(C)c1ccc(N2C(=O)CSC2=S)cc1` showed an IC50 of 8.37 µM.
`Cc1cc([N+](=O)[O-])cc2c1NC(c1ccccn1)C1CC=CC21` (stereo unspecified) was tested, and the IC50 was 3.03 µM.
Work on `CC1=CN2C(=N)/C(=C/c3ccc([N+](=O)[O-])o3)C(=O)N=C2S1` yielded an IC50 of 2.91 µM.
In the case of `CC1CCC/C(=C\Nc2ccc(C(=O)O)c(O)c2)C1=O` (stereo unspecified), the IC50 is reported as 17.1 µM.
In the case of `COc1ccc(C2CC(=O)N3CN(c4ccc(C)c(Cl)c4)CSC3=C2C#N)cc1` (stereo unspecified), the IC50 is reported as 81.2 µM.
For `COc1ccc(NC(=O)c2cc(-c3ccco3)nc3ccccc23)cc1S(=O)(=O)N1CCOCC1`, the IC50 was 2.38 µM.
`CC1(C)C/C(=C(/C#N)C(N)=O)CCO1` showed an IC50 of 80.7 µM.
In the case of `CN(C)c1ccc(N/C=C/C(=O)c2ccco2)cc1`, the IC50 is reported as 30.8 µM.
Molecule `Cc1cc(F)ccc1S(=O)(=O)Nc1ccccc1C(=O)Nc1ccc2[nH]c(=O)[nH]c2c1` has an IC50 of 78 µM.
Work on `COc1cc(/C=C/C=C2/CC/C(=C/C=C/c3ccc(O)c(OC)c3)C2=O)ccc1O` yielded an IC50 of 4.03 µM.
With `Cc1cc(/C=C2\C(=O)NC(=O)N(c3cccc(F)c3)C2=O)c(C)n1-c1cc(C(=O)O)cc(C(=O)O)c1` the IC50 was 10.2 µM.
With `COc1ccc2nc(NNC(=O)c3cc(=O)c4ccccc4o3)sc2c1` the IC50 was 26.8 µM.
For `O=C(NCCc1ccccc1)c1ccc2nc(-c3ccco3)c(-c3ccco3)nc2c1`, the IC50 was 3.01 µM.
For `COc1cc2c3c(c1OC)C1(C=CC(=O)C=C1)CC3N(C(=O)CCC(=O)O)CC2` (stereo unspecified), the IC50 was 13.3 µM.
For `O=C(Nc1ccn(-c2ccccc2)n1)c1ccccc1Br`, the IC50 was 10.6 µM.

From PubChem BioAssay AID1117319 (Southern Research Institute, 2015)
